Data: ChEMBL document CHEMBL6182854, “Design, synthesis and biological evaluation of WEE1 degraders via HSP90-mediated targeting chimeras for target therapy of acute myeloid leukemia” (Eur J Med Chem, 2025)
Activity calls are given as the source filed them. The rule behind the calls is not given here.

Columns and labels:
MV4-11 [1] = assay: HEMTAC activity against HSP90/WEE1 in human MV4-11 cells assessed as induction of WEE1 degradation at 10 uM incubated for 12 hrs by Western blotting analysis; type: cell-based
MV4-11 [2] = assay: Antiproliferative activity against human MV4-11 cells assessed as cell viability incubated for 72 hrs by CCK-8 assay; type: functional, cell-based; settings: MV4-11, 72 h
[3] = target: Heat shock protein HSP 90-alpha (Homo sapiens, UniProt P07900); assay: Inhibition of N-terminal HSP90alpha (unknown origin) ATPase activity incubated for 3 hrs by fluorescence polarization assay
MV4-11 [4] = assay: Induction of cell cycle arrest in human MV4-11 cells assessed as accumulation of cells at G2/M phase at 100 nM incubated for 72 hrs by PI staining based flow cytometry; type: functional
[5] = test system: Primary acute myeloid leukemic cell; assay: Antitumor activity against patient derived human Primary acute myeloid leukemic cell xenografted in female NOD/SCID mouse assessed as decrease in huCD45+ cells in bone marrow at 3 mg/kg administered via tail vein in presence of STA9090 and measured after 4 weeks by flow cytometric analysis; type: functional, organism-based
[6] = test system: Primary acute myeloid leukemic cell; assay: Antitumor activity against patient derived human Primary acute myeloid leukemic cell xenografted in female NOD/SCID mouse assessed as decrease in huCD45+ cells in bone marrow at 5 mg/kg administered via tail vein and measured after 4 weeks in presence of STA9090 by flow cytometric analysis; type: functional, organism-based
MV4-11 [7] = assay: Upregulation of WEE1 mRNA expression in human MV4-11 cells incubated for 12 hrs by qRT-PCR analysis; type: functional, cell-based; settings: dose 1-10 µM
[8] = test system: Primary acute myeloid leukemic cell; assay: Antitumor activity against patient derived human Primary acute myeloid leukemic cell xenografted in female NOD/SCID mouse assessed as decrease in huCD45+ cells in bone marrow at 5 mg/kg administered via tail vein and measured after 4 weeks by flow cytometric analysis; type: functional, organism-based
[9] = Toxicity in female NOD/SCID mouse xenografted with patient derived human Primary acute myeloid leukemic cell assessed as lung damage at 10 mg/kg administered via tail vein by H and E staining based optical microscopic analysis; type: organism-based; settings: in vivo, iv
MV4-11 [10] = assay: Induction of cell cycle arrest in human MV4-11 cells assessed as accumulation of cells at G2/M phase incubated for 72 hrs by PI staining based flow cytometry; type: functional; settings: dose 30.0 µM
[11] = Antitumor activity against patient derived human Primary acute myeloid leukemic cell xenografted in female NOD/SCID mouse assessed as decrease in huCD45+ cells in bone marrow at 10 mg/kg administered via tail vein and measured after 4 weeks by flow cytometric analysis relative to control; type: functional; design: scale not given: the % may be the effect or the level left
[12] = target: Cyclin-dependent kinase 1 (Homo sapiens) (UniProt P06493); assay: Inhibition of CDK1 phosphorylation in human MV4-11 cells; type: cell-based
Cyclin-dependent kinase 1 (Homo sapiens), sequence (P06493 whole entry, looked up): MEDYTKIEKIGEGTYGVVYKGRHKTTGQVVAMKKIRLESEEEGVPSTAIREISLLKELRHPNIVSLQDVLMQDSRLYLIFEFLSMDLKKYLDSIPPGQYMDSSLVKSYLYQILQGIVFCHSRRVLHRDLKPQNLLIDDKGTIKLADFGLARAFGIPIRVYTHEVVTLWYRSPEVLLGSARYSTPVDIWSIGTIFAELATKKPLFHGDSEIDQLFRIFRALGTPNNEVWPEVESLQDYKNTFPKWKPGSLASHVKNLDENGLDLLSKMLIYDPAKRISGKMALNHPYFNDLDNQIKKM

MV4-11 [13] = assay: Induction of cell cycle arrest in human MV4-11 cells assessed as accumulation of cells at G2/M phase at 30 nM incubated for 72 hrs by PI staining based flow cytometry; type: functional
[14] = test system: Primary acute myeloid leukemic cell; assay: Antitumor activity against patient derived human Primary acute myeloid leukemic cell xenografted in female NOD/SCID mouse assessed as reduction in splenomegaly at 10 mg/kg administered via tail vein and measured after 4 weeks; type: functional, organism-based
[15] = Toxicity in male BALB/C mouse assessed as myelosuppression by measuring platelet level at 10 mg/kg administered via tail vein and measured on day 3; type: organism-based; settings: in vivo, iv, 72 h, time 3 day
[16] = Cytotoxicity against human PBMC cells assessed as reduction in cell viability up to 1000 nM incubated for 72 hrs by CCK-8 assay; type: toxicity, cell-based; settings: 1 µM
MV4-11 [17] = assay: HEMTAC activity against HSP90/AKT in human MV4-11 cells assessed as induction of AKT degradation at 0.1 uM incubated for 12 hrs by Western blotting analysis; type: cell-based
[18] = Toxicity in female NOD/SCID mouse xenografted with patient derived human Primary acute myeloid leukemic cell assessed as lung damage at 3 mg/kg administered via tail vein by H and E staining based optical microscopic analysis; type: organism-based; settings: in vivo, iv
MV4-11 [19] = assay: HEMTAC activity at HSP90/WEE1 in human MV4-11 cells assessed as induction of WEE1 degradation at 0.1 uM incubated for 12 hrs by Western blotting analysis; type: cell-based
[20] = Toxicity in female NOD/SCID mouse xenografted with patient derived human Primary acute myeloid leukemic cell assessed as liver damage at 10 mg/kg administered via tail vein by H and E staining based optical microscopic analysis; type: organism-based; settings: in vivo, iv
[21] = test system: Primary acute myeloid leukemic cell; assay: Antitumor activity against patient derived human Primary acute myeloid leukemic cell xenografted in female NOD/SCID mouse assessed as decrease in huCD45+ cells in spleen at 10 mg/kg administered via tail vein and measured after 4 weeks by flow cytometric analysis; type: functional, organism-based
[22] = Toxicity in female NOD/SCID mouse xenografted with patient derived human Primary acute myeloid leukemic cell assessed as spleen damage at 10 mg/kg administered via tail vein by H and E staining based optical microscopic analysis; type: organism-based; settings: in vivo, iv
[23] = Antiproliferative activity against patient derived human Primary acute myeloid leukemic cell assessed as inhibition of cell growth incubated for 72 hrs by CCK-8 assay; type: functional, cell-based
[24] = Toxicity in female NOD/SCID mouse xenografted with patient derived human Primary acute myeloid leukemic cell assessed as heart damage at 10 mg/kg administered via tail vein by H and E staining based optical microscopic analysis; type: organism-based; settings: in vivo, iv
[25] = Toxicity in female NOD/SCID mouse xenografted with patient derived human Primary acute myeloid leukemic cell assessed as increase in body weight at 10 mg/kg administered via tail vein and measured after 4 weeks; type: organism-based; settings: in vivo, iv, 672 h
[26] = test system: Primary acute myeloid leukemic cell; assay: Antitumor activity against patient derived human Primary acute myeloid leukemic cell xenografted in female NOD/SCID mouse assessed as decrease in huCD45+ cells in bone marrow at 3 mg/kg administered via tail vein in presence of AZD1775 and measured after 4 weeks by flow cytometric analysis; type: functional, organism-based
[27] = test system: Primary acute myeloid leukemic cell; assay: Antitumor activity against patient derived human Primary acute myeloid leukemic cell xenografted in female NOD/SCID mouse assessed as decrease in huCD45+ cells in bone marrow at 5 mg/kg administered via tail vein and measured after 4 weeks in presence of AZD1775 by flow cytometric analysis; type: functional, organism-based

C=CCn1c(=O)c2cnc(Nc3ccc(N4CCN(CCCCNC(=O)c5noc(-c6cc(C(C)C)c(O)cc6O)c5-c5ccc(CN6CCOCC6)cc5)CC4)cc3)nc2n1-c1cccc(C(C)(C)O)n1
Activity (MV4-11 [1]): Active
IC50 (MV4-11 [2]): 45 nM

C=CCn1c(=O)c2cnc(Nc3ccc(N4CCN(CCCNC(=O)CCC(=O)Nc5ccc6c(c5)CCN6C(=O)c5cc(C(C)C)c(O)cc5O)CC4)cc3)nc2n1-c1cccc(C(C)(C)O)n1
IC50 [3]: 18.7 nM
Activity (MV4-11 [1]): Active
IC50 (MV4-11 [2]): 47.6 nM

C=CCn1c(=O)c2cnc(Nc3ccc(N4CCN(C)CC4)cc3)nc2n1-c1cccc(C(C)(C)O)n1 [ADAVOSERTIB]
Activity (MV4-11 [4]): Active
Activity [5]: inactive
Activity [6]: inactive
Activity (MV4-11 [1]): inactive
IC50 (MV4-11 [2]): 67.5 nM
Activity (MV4-11 [7]): inactive
Activity [8]: inactive

C=CCn1c(=O)c2cnc(Nc3ccc(N4CCN(CCCCNC(=O)CCC(=O)Nc5ccc6c(c5)CCN6C(=O)c5cc(C(C)C)c(O)cc5O)CC4)cc3)nc2n1-c1cccc(C(C)(C)O)n1
Activity (MV4-11 [1]): Active
IC50 (MV4-11 [2]): 153 nM

C=CCn1c(=O)c2cnc(Nc3ccc(N4CCN(CCCNC(=O)c5noc(-c6cc(C(C)C)c(O)cc6O)c5-c5ccc(CN6CCOCC6)cc5)CC4)cc3)nc2n1-c1cccc(C(C)(C)O)n1
Activity [9]: Non-toxic
Activity (MV4-11 [10]): Dose-dependent-effect
Activity [11]: >70%
IC50 [3]: 13.9 nM
inhibition [12]: Active
Activity (MV4-11 [13]): Active
Activity [14]: Active
Activity [15]: Non-toxic
Activity (MV4-11 [1]): Active
Activity [16]: Non-toxic
Activity (MV4-11 [17]): Minimal_effect
Activity [18]: Non-toxic
Activity (MV4-11 [19]): Active
IC50 (MV4-11 [2]): 8.03 nM
Activity (MV4-11 [7]): Active
Activity [20]: Non-toxic
Activity [21]: Active
Activity [22]: Non-toxic
IC50 [23]: 40.5 nM
Activity [24]: Non-toxic
Activity [25]: Non-toxic

C=CCn1c(=O)c2cnc(Nc3ccc(N4CCN(CCNC(=O)CN5CCN(Cc6ccc(-n7c(C(=O)NCC)nnc7-c7cc(C(C)C)c(O)cc7O)cc6)CC5)CC4)cc3)nc2n1-c1cccc(C(C)(C)O)n1
Activity (MV4-11 [1]): Active
IC50 (MV4-11 [2]): 13.1 nM

CC(C)c1cc(-c2n[nH]c(=O)n2-c2ccc3c(ccn3C)c2)c(O)cc1O [GANETESPIB]
Activity [26]: inactive
Activity (MV4-11 [10]): Active
Activity [27]: inactive
IC50 (MV4-11 [2]): 1.53 nM
Activity [8]: inactive
